The test system of experiment [1] is human Jurkat T cells deficient in FADD. Briefly: Cell protection effect under apoptosis-inducing condition (TNF-α). The settings on record: 40 ng of TNF-α, 50 hours, CellTiter-Glo, read-out: I2.I Cell EC50. The class given is cell-based. How it is done: The cell protection effect of the compounds according to the present invention under the condition of inducing apoptosis by TNF-α was confirmed by […]. An apoptosis inducing factor such as TNF-α was treated to induce apoptosis of human Jurkat T cells deficient in FADD, to which the example compound was treated, and the cell protection effect was confirmed through the following analysis. Jurkat T cells deficient in FADD were cultured using RPMI medium (Hyclone) containing 10% FBS. When performing the test, the cells were seeded in a 96-well plate containing a medium suitable for the cell line at the density of 10,000 cells/well, and cultured in a 37° C. 5% CO2 incubator for 24 hours. Then, each well was treated with 40 ng of TNF-α, and the compounds prepared in the above examples were each treated with a 3-fold concentration gradient with 1 μM as the highest concentration. As the solvent control, dimethyl sulfoxide (DMSO) was treated at the concentration of 0.05% (v/v), which was the same concentration as that used for the compound treatment. Then, the cells were cultured for 50 hours. To confirm the degree of viability of the cells, a mixture provided in CellTiter-Gloe Luminescent Cell Viability Assay Kit (Promega) was added to the culture medium of the cells, followed by further culture at 37° C. for 30 minutes. Then, luminescence fluorescence was measured. The degree of inhibition of apoptosis induction according to the treatment concentration of each compound was calculated based on the fluorescence of the solvent control cells not treated with the compound. At this time, the concentration of each compound inhibiting 50% was determined as EC50 (μM). EC50 of each compound was calculated using Prism (version 7.01, GraphPad) software.
On the technique in general: In ATP-based viability assays light output follows the ATP content of the culture.

Experiment [2] deals with T1, human GST-RIPK1 (Homo sapiens, UniProt Q13546).
T1 construct: GST; purchased signalchem
T1 sequence (Q13546 1-375 limits assumed): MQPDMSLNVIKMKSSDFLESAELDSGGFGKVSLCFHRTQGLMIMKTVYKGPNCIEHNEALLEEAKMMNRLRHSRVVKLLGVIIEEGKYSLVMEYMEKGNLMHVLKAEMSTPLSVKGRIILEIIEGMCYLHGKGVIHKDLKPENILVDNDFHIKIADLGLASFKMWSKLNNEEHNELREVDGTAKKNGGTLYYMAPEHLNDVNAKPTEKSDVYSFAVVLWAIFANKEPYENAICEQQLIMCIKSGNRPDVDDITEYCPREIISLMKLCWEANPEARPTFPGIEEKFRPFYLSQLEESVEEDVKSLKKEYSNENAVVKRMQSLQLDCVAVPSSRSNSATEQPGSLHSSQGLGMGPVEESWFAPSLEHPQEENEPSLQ
Put plainly: RIPK1 inhibitory activity (ADP-Glo kinase assay). The class given is biochemical. The settings on record: human GST-RIPK1 10 ng, ATP 50 uM, 25° C. for 4 hours, read-out: Enzyme IC50. How it is done:
The following experiment was performed to evaluate the inhibitory activity of the example compounds according to the present invention against RIPK1 (receptor-interacting serine/threonine protein kinase 1).
The example compound was reacted with the purified human GST-RIPK1 (1375, signalchem) enzyme to evaluate the enzyme inhibitory activity in the following manner. The composition of the reaction buffer used herein was as follows: 40 mM Tris-Hcl pH 7.4, 20 mM MgCl2, 0.5 mg/ml, BSA and 0.5 uM DTT. All the test materials were reacted in the reaction buffer. After reacting human GST-RIPK1 (1375, 10 ng), purified ATP (50 uM) and a specific substrate solution at 25° C. for 4 hours, the enzyme activity was confirmed using an in vitro ADP-Glo™ kinase assay (promega). Luminoscence was measured by reacting the enzyme activity reaction solution, ADP-Glo reaction solution, and enzyme activity detection solution at the ratio of 2:2:1. The degree of enzyme activity inhibition according to the treatment concentration of each compound was calculated based on the fluorescence of the enzyme activity of the solvent control not treated with the compound. At this time, the concentration of each compound inhibiting 50% of the enzyme activity was determined as IC50 (nM). IC50 of each compound was determined with three data sets and calculated using Prism (version 7.01, GraphPad) software.

These results are taken from US20210284647A1, “N-(3-(IMIDAZO[1,2-B]PYRIDAZIN-3-YLETHYNYL)-4-METHYLPHENYL)-5-PHENYL-4,5-DIHYDRO-1H-PYRAZOLE-1-CARBOXAMIDE DERIVATIVE, AND PHARMACEUTICAL COMPOSITION CONTAINING SAME AS ACTIVE INGREDIENT FOR TREATING KINASE-RELATED DISEASES” (VORONOIBIO INC., priority 2018, published 2021).

The term EC50 denotes the concentration giving half of the maximal effect. As a reminder, the IC50 is the concentration that inhibits the measured activity by half.

Consider `O=C(Nc1cccc(C#Cc2cnc3cccnn23)c1)N1N=CCC1c1ccc2ccccc2c1` (stereo not shown) [Example 40, N-(3-(imidazo[1,2-b]pyridazin-3-ylethynyl)phenyl)-5-(naphthalen-2-yl)-4,5-dihydro-1H-pyrazole-1-carboxamide], for which the EC50 in experiment [1] is 12.4 nM. Also, in experiment [2], the IC50 worked out at 19 nM.

`O=C(Nc1cccc(C#Cc2cnc3cccnn23)c1)N1N=CCC1c1cc2ccccc2cn1` (stereo not shown) [Example 41, N-(3-(imidazo[1,2-b]pyridazin-3-ylethynyl)phenyl)-5-(isoquinolin-3-yl)-4,5-dihydro-1H-pyrazole-1-carboxamide]: the EC50 in experiment [1] turned out to be 64.6 nM. Also, in experiment [2], the IC50 was 33 nM.

On to `O=C(Nc1cccc(C#Cc2cnc3cccnn23)c1)N1N=CCC1C1CCCCC1` (stereo not shown) [Example 42, 5-cyclohexyl-N-(3-(imidazo[1,2-b]pyridazin-3-ylethynyl)phenyl)-4,5-dihydro-1H-pyrazole-1-carboxamide], for which the 50% effective concentration (EC50) in experiment [1] worked out at 1.5 nM. Also, the 50% inhibitory concentration (IC50) in experiment [2] amounted to 12.7 nM.

In the case of `S=C(Nc1cccc(C#Cc2cnc3cccnn23)c1)N1N=CCC1c1ccccc1` (stereo not shown) [Example 43, N-(3-(imidazo[1,2-b]pyridazin-3-ylethynyl)phenyl)-5-phenyl-4,5-dihydro-1H-pyrazole-1-carbothioamide], in experiment [1], the EC50 is 6.7 nM. Further, the concentration for half-maximal inhibition (IC50) in experiment [2] came out at 277 nM.

As for `O=C(Nc1ccc(F)c(C#Cc2cnc3cccnn23)c1)N1N=CCC1c1ccccc1` (stereo not shown) [Example 44, N-(4-fluoro-3-(imidazo[1,2-b]pyridazin-3-ylethynyl)phenyl)-5-phenyl-4,5-dihydro-1H-pyrazole-1-carboxamide 2,2,2-trifluoroacetate], the concentration for a half-maximal effect (EC50) in experiment [1] is 0.37 nM. The IC50 in experiment [2] came to 18.1 nM.

With `O=C(Nc1ccc(F)c(C#Cc2cnc3cccnn23)c1)N1N=CC[C@H]1c1ccccc1` [Example 45, (S)—N-(4-fluoro-3-(imidazo[1,2-b]pyridazin-3-ylethynyl)phenyl)-5-phenyl-4,5-dihydro-1H-pyrazole-1-carboxamide 2,2,2-trifluoroacetate], in experiment [1], the concentration for a half-maximal effect (EC50) is 0.09 nM. In addition, the IC50 in experiment [2] was found to be 8.8 nM.

For the compound `O=C(Nc1ccc(F)c(C#Cc2cnc3cccnn23)c1)N1N=CC[C@@H]1c1ccccc1` [Example 46, (R)—N-(4-fluoro-3-(imidazo[1,2-b]pyridazin-3-ylethynyl)phenyl)-5-phenyl-4,5-dihydro-1H-pyrazole-1-carboxamide 2,2,2-trifluoroacetate], the EC50 in experiment [1] was 97.7 nM. In addition, the IC50 in experiment [2] turned out to be 205 nM.

For `O=C(Nc1cc(C#Cc2cnc3cccnn23)ccc1F)N1N=CCC1c1ccccc1` (stereo not shown) [Example 47, N-(2-fluoro-5-(imidazo[1,2-b]pyridazin-3-ylethynyl)phenyl)-5-phenyl-4,5-dihydro-1H-pyrazole-1-carboxamide 2,2,2-trifluoroacetate], the EC50 in experiment [1] was above 1000 nM. For the same compound, in experiment [2], the concentration for half-maximal inhibition (IC50) is 50.1 nM.

Regarding `O=C(Nc1ccnc(C#Cc2cnc3cccnn23)c1)N1N=CCC1c1ccccc1` (stereo not shown) [Example 48, N-(2-(imidazo[1,2-b]pyridazin-3-ylethynyl)pyridin-4-yl)-5-phenyl-4,5-dihydro-1H-pyrazole-1-carboxamide 2,2,2-trifluoroacetate], in experiment [1], the concentration giving a half-maximal response (EC50) was found to be 1.4 nM. The IC50 in experiment [2] is 3.4 nM.

`O=C(Nc1ccnc(C#Cc2cnc3cccnn23)c1)N1N=CC[C@H]1c1ccccc1` [Example 49, (S)—N-(2-(imidazo[1,2-b]pyridazin-3-ylethynyl)pyridin-4-yl)-5-phenyl-4,5-dihydro-1H-pyrazole-1-carboxamide 2,2,2-trifluoroacetate]: in experiment [1], the EC50 came to 0.3 nM. For the same compound, in experiment [2], the IC50 was found to be 1.9 nM.

In the case of `O=C(Nc1ccnc(C#Cc2cnc3cccnn23)c1)N1N=CC[C@@H]1c1ccccc1` [Example 50, (R)—N-(2-(imidazo[1,2-b]pyridazin-3-ylethynyl)pyridin-4-yl)-5-phenyl-4,5-dihydro-1H-pyrazole-1-carboxamide 2,2,2-trifluoroacetate], the EC50 in experiment [1] worked out at 197 nM. Moreover, the IC50 in experiment [2] was above 1000 nM.
